Measured values taken from paper PMC6278366, “Synthesis and Evaluation of Anticancer Activities of Novel C-28 Guanidine-Functionalized Triterpene Acid Derivatives” (Molecules, 2018).

Columns and labels:
[1] = tested on: Jurkat (T-lymphoblastic leukemia) cells; assay: cells; assay type: cell-based; details: Homo sapiens, Jurkat, mean ± SE, at least three experiments in duplicate; viable cells; read-out: IC50 Jurkat
Method: (§1) Cells (Jurkat, K562, U937, HeLa, HEK293 and normal Fibroblasts) were purchased from Russian Cell Culture Collection (Institute of Cytology of the Russian Academy of Sciences, Saint Petersburg, Russia) and cultured according to standard mammalian tissue culture protocols and sterile technique. Human cell lines HEK293 and HeLa were obtained from the HPA Culture Collections (Salisbury, UK). All cell lines used in the study were tested and shown to be free of mycoplasma and viral contamination.
(§2) Cells were maintained in RPMI 1640 (Jurkat, K562, U937) (Gibco, Thermo Fisher Scientific, Waltham, MA, USA) supplemented with 4 mM glutamine, 10% FBS (Sigma, Burlington, MA, USA) and 100 units/mL penicillin-streptomycin (Sigma). All types of cells were grown in an atmosphere of 5% CO2 at 37 °C. The cells were subcultures at 2–3 days intervals. Adherent cells (HEK293, HeLa, fibroblasts) were suspended using trypsin/EDTA and counted after they have reached 80% confluency. Cells were then seeded in 24 well plates at 5 × 10^4 cells per well and incubated overnight. Jurkat, K562, U937 cells were subcultured at 2 day intervals with a seeding density of 1 × 10^5 cells per 24 well plates in RPMI with 10% FBS.
(§3) Viability (Live/dead) assessment was performed by staining cells with 7-AAD (7-Aminoactinomycin D) (Biolegend, San Diego, CA, USA). Cells were treated of test compounds with six different concentrations (1, 5, 10, 15, 30 and 60 μM). After treatment, cells were harvested, washed 1–2 times with phosphate-buffered saline (PBS) and centrifuged at 400× g for 5 min. Cell pellets were resuspended in 200 μL of flow cytometry staining buffer (PBS without Ca^2+ and Mg^2+, 2.5% FBS) and stained with 5 μL of 7-AAD staining solutionfor 15 min at room temperature in the dark. Samples were acquired on NovoCyteTM 2000 FlowCytometry System (ACEA, San Diego, CA, USA) equipped with 488 nm argon laser. Detection of 7-AAD emission was collected through a 675/30 nm filter in FL4 channel.

[2] = tested on: K562 (chronic myeloid leukemia) cells; assay: Cytotoxicity assay (7-AAD viability, flow cytometry), K562; assay type: cell-based, human; details: Homo sapiens, K562, mean ± SE, at least three experiments in duplicate; viable cells; read-out: IC50 K562
Method: as §1, §2, §3

[3] = tested on: U937 (histiocytic lymphoma) cells; assay: Cytotoxicity assay (7-AAD viability, flow cytometry), U937; assay type: cell-based, human; details: Homo sapiens, U-937, mean ± SE, at least three experiments in duplicate; viable cells; read-out: IC50 U937
Method: as §1, §2, §3

[4] = tested on: HEK293 (embryonic kidney) cells; assay: Cytotoxicity assay (7-AAD viability, flow cytometry), HEK293; assay type: cell-based, human; details: Homo sapiens, HEK293, mean ± SE, at least three experiments in duplicate; viable cells
Method: as §1
(§4) HEK293, HeLa cell lines and fibroblasts were cultured as monolayers and maintained in Dulbecco’s modified Eagle’s medium (DMEM, Gibco BRL, Waltham, MA, USA) supplemented with 10% foetal bovine serum and 1% penicillin-streptomycin solution at 37 °C in a humidified incubator under a 5% CO2 atmosphere.
as §2, §3

[5] = tested on: HeLa (cervical cancer) cells; assay: Cytotoxicity assay (7-AAD viability, flow cytometry), HeLa; assay type: cell-based, human; details: Homo sapiens, HeLa, mean ± SE, at least three experiments in duplicate; viable cells
Method: as §1, §4, §2, §3

[6] = tested on: normal human fibroblasts; assay: Cytotoxicity assay (7-AAD viability, flow cytometry), normal fibroblasts; assay type: cell-based; details: Homo sapiens, Fibroblast, mean ± SE, at least three experiments in duplicate
Method: as §1, §4, §2
as §3, with “Cells were treated of test compounds with six different concentrations (1, 5, 10, 15, 30 and 60 μM).” left out

| SMILES | IC50 [1] | IC50 [2] | IC50 [3] | IC50 [4] | IC50 [5] | IC50 [6] | melting point |
| --- | --- | --- | --- | --- | --- | --- | --- |
| CC(=O)O[C@H]1CC[C@@]2(C)C(CC[C@]3(C)C2CCC2C4C(C(C)C)CC[C@]4(C(=O)NCCN)CC[C@]23C)C1(C)C (stereo partly drawn) [Compound 5, 3β-N-(2-Aminoethyl)-3-O-acetyl-lupane-28-amide] | 2.3 ± 0.11 µM | 2.8 ± 0.23 µM | 1.9 ± 0.34 µM | 4.8 ± 0.25 µM | 3.9 ± 0.41 µM | 5.3 ± 0.27 µM | 120 to 122 °C |
| CC(=O)O[C@H]1CC[C@@]2(C)C(CC[C@]3(C)C2CCC2C4C(C(C)C)CC[C@]4(C(=O)NCCCCN)CC[C@]23C)C1(C)C (stereo partly drawn) [Compound 6, 3β-N-(4-Aminobuthyl)-3-O-acetyl-lupane-28-amide] | 7.7 ± 0.31 µM | 1.8 ± 0.12 µM | 4.5 ± 0.43 µM | 6.7 ± 0.21 µM | 7.1 ± 0.18 µM | 8.3 ± 0.29 µM | 104 to 106 °C |
| CC(=O)O[C@H]1CC[C@@]2(C)C(CC[C@]3(C)C2CCC2C4C(C(C)C)CC[C@]4(C(=O)NCCCN4CCN(CCCN)CC4)CC[C@]23C)C1(C)C (stereo partly drawn) [Compound 8a, 3β-N-{[3-(3-Aminopropyl)piperazinyl]propyl}-3-O-acetyl-lupane-28-amide] | 4.5 ± 0.29 µM | 3 ± 0.19 µM | 8.2 ± 0.13 µM | 5.9 ± 0.14 µM | 6.1 ± 0.38 µM | 7.3 ± 0.43 µM | 119 to 121 °C |
